Target: T1, endothelial lipase (EL) (Homo sapiens, UniProt Q9Y5X9)
T1 construct: made in house; host or cells: recombinant cell lines (CHO, HEK293); concentrated conditioned medium
T1 sequence (Q9Y5X9 21-500): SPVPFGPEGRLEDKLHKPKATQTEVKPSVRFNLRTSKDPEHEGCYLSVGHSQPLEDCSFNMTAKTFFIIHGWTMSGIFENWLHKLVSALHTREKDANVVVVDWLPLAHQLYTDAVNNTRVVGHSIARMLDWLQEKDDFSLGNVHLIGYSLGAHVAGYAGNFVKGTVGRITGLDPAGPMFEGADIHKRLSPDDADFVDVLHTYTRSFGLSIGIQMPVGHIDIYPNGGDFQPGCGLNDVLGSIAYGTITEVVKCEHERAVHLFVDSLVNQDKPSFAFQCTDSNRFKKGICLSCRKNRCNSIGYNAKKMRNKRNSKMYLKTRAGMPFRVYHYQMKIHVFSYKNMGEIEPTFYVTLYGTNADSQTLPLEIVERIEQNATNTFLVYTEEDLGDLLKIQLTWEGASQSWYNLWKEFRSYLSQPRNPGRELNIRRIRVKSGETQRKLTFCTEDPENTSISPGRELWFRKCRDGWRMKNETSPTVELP
Assay: Further EL inhibition assay
Format: biochemical
Conditions: phospholipase substrate (Bodipy-labelled phosphocholine), 37° C., 90 minutes, EL from conditioned medium of recombinant cell lines (CHO, HEK293)
Text: EL is released as secretory protein in high concentration into cell culture medium (conditioned medium) by recombinant cell lines (CHO, HEK293). This is employed as enzyme solution after concentration.
The enzymatic activity is reduced as a function of the inhibitor concentration used, and the inhibitor concentration at which a half-maximum enzymatic activity is observed is called IC50.
The phospholipase-specific substrate 1,2-bis(4,4-difluoro-5,7-dimethyl-4-bora-3a,4a-diaza-s-indacene-3-undecanoyl)-sn-glycero-3-phosphocholine, (manufacturer Molecular Probes) is used to characterize the enzymatic activity of endothelial lipase and the effect of inhibitors. Hydrolysis of the A1 ester linkage of this phospholipid by the enzyme liberates the fluorescent dye Bodipy which can be detected after separation by thin-layer chromatography on an HPTLC plate (silica gel 60, Merck) or directly in the reaction vessel by measuring the fluorescence.
The substrate solution is prepared by dissolving 100 μg of 1,2-bis(4,4-difluoro-5,7-dimethyl-4-bora-3a,4a-diaza-s-indacene-3-undecanoyl)-sn-glycero-3-phosphocholine (manufacturer Molecular Probes) in 100 μl of DMSO and taking up in 2.4 mg of tripalmitin (Sigma) in 393 μl of chloroform which comprises 20 mg/ml DOP-choline (1,2-dioleoyl-sn-glycero-3-phosphocholine). 39.3 μl of this lipid mixture are transferred into a fresh reaction vessel, and the solvent is evaporated off. The lipid mixture is dissolved in 4 ml of 200 mM TRIS-HCl, 150 mM sodium chloride, pH=7.4, by sonication twice. The subsequent enzymic reaction takes place at 37° C. for 90 minutes. For this purpose, 20 μl of the substrate solution are incubated with 2 μl of inhibitor of appropriate concentration (dissolved in 10% DMSO, using 10% strength DMSO solution for control) and 2 μl of enzyme solution (conditioned medium). The 4 μl of the assay mixture are loaded onto an HPTLC plate (silica gel 60, Merck), and the liberated fluorescent dye is separated for detection with an eluent (diethyl ether:petroleum benzine:acetic acid [78:22:1]). After evaporation of the eluent, the plate is read in a fluorescence scanner. An increased liberation of the fluorescent dye in the uninhibited reaction is to be observed as a measure of the enzymic activity.

Structure (SMILES)	IC50 [µM]
CCCCCCCNC(=O)n1c(=O)sc2ccccc21 [Example 2, 2-Oxobenzothiazole-3-heptylcarboxamide]	0.051
Cc1ccccc1CNC(=O)n1c(=O)sc2ccccc21 [Example 3, 2-Oxobenzothiazole-3-(2-methylbenzyl)carboxamide]	0.052
CCCCCCNC(=O)n1c(=O)sc2ccccc21 [Example 1, 2-Oxobenzothiazole-3-hexylcarboxamide]	0.16
Cc1cccc(CNC(=O)n2c(=O)sc3ccccc32)c1 [Example 4, 2-Oxobenzothiazole-3-(3-methylbenzyl)carboxamide]	0.215
CCCCCCNC(=O)n1c(=O)sc2cc(Br)ccc21 [Example 5, 6-Bromo-2-oxobenzothiazole-3-hexylcarboxamide]	0.435
CCCCCCNC(=O)n1c(=O)sc2ccc(C(F)(F)F)cc21 [Example 7, 2-Oxo-5-trifluoromethylbenzothiazole-3-hexylcarboxamide]	0.12
CCCCCCCNC(=O)n1c(=O)sc2ccc(Cl)cc21 [Example 6, 5-Chloro-2-oxobenzothiazole-3-heptylcarboxamide]	0.014

Source: patent publication US8008331B2, “Benzothiazol-2-one derivatives as lipase and phospholipase inhibitors” (Sanofi-Aventis, priority 2005, dated 2011)
